Measurements from patent publication US6656510B2, “Hyperforin derivatives, use thereof and formulations containing them” (Indena S.p.A., priority 1998, dated 2003).

Tests used:
[1] = after only a few weeks; WO 97/13489; cited from earlier work
[2] = tested on: escape deficit (antidepressive effect); assay: escape deficit development test; assay type: in vivo; settings: rats, 2 week pre-treatment, escapes out of 30 stimuli
Description: In the escape deficit development test, rats are restrained and subjected to mild, short, unavoidable electric shocks for 50 minutes. This is known as the pre-test. 24 hours later, the rats are tested for their ability to avoid the same stimuli on their tails, in a situation where […]. A rat on the average makes 26 escapes out of 30 stimuli (naive controls), whereas a rat subjected to pre-test only makes 1 to 3 escapes (ED controls). […] The compounds of the invention, when administered to rats one hour before their exposure to the unavoidable stress, cause an increase in reactivity to the escape test. This increase in reactivity is enhanced when pre-treatment is effected for 1 to 2 weeks.

SMILES: CC(C)=CCC[C@]1(C)[C@@H](CC=C(C)C)C[C@@]2(CC=C(C)C)C(=O)[C@]1(C(=O)C(C)C)C(=O)C(CC=C(C)C)=C2O [hyperforin]
- hyperforin content of a water-alcohol extract of St. Johns wort [1]: falls almost to zero

SMILES: CC(=O)OC1=C(CC=C(C)C)C(=O)[C@]2(C(=O)C(C)C)C(=O)[C@]1(CC=C(C)C)C[C@H](CC=C(C)C)[C@@]2(C)CCC=C(C)C [Hyperforin acetate]
- Number of Escapes ([2]; 6.25 mg/Kg): 12.6 ± 2.8
- Number of Escapes ([2]; 12.5 mg/Kg): 17.3 ± 1.9
- Number of Escapes ([2]; 25.0 mg/Kg): 21.2 ± 1.3
